One series addresses T1, hP2X2/3 (Homo sapiens, UniProt P56373+Q9UBL9).
T1 construct: host or cells: 1321N1
T1 sequence (P56373 1-397): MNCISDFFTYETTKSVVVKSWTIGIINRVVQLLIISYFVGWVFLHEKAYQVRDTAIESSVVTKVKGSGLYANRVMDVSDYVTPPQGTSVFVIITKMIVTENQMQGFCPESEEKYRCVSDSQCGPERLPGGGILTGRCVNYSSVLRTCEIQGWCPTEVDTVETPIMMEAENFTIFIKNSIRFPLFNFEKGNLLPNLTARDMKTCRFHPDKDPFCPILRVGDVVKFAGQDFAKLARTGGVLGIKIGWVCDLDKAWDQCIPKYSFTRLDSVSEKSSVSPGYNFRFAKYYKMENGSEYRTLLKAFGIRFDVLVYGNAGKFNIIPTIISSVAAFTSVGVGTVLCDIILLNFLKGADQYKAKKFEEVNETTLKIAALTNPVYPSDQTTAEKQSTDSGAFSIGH
T1 sequence (Q9UBL9 1-471): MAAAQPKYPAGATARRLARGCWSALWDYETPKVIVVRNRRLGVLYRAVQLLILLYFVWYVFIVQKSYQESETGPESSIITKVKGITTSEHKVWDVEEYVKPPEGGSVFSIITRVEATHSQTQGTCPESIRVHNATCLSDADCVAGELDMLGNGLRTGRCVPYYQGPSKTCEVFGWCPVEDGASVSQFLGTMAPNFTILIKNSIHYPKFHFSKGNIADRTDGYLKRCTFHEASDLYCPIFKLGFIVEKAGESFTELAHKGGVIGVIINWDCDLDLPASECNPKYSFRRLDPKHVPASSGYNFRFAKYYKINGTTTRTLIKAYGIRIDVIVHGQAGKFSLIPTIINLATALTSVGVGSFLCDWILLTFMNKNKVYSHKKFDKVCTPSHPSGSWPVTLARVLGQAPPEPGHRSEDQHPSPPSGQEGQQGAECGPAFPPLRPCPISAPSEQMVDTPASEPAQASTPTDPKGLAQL
The series is described as follows: FLIPR assay, antagonistic activity against hP2X2/3 receptor (selectivity versus P2X3). The series is classed as cell-based. The following applies: Multiple of P2X2/3 inhibitory activity and P2X3 inhibitory activity. The procedure:
(§1) Test Example 1: Screening Compounds for Antagonistic Activity Against hP2X3/hP2X2/3 Receptors by FLIPR Assay
(§2) Cell preparation: Cells 1321N1/hP2X3 and cells 1321N1/hP2X2/3 (supplier: Chempartner) were […] with Versene digestive solution. After centrifugation, the cells were suspended using plate medium (DMEM+[…]) and counted. The cells were adjusted to 3×10^5 cells/mL. Each of the 384-well test plates was covered with 50 μL cells and cultured in a […] incubator at 37° C. for 16 hours to 24 hours.
(§3) Compound preparation: 1. Test sample: test compound at a concentration 180 times the required concentration (54 mM DMSO stock solution) was prepared using DMSO in a 384-well polypropylene microporous plate conforming to Echo standard, 500 nL of which was added to each well of a 384-well compound plate. Then 30 μL of test buffer (1*HIBSS+2 mM CaCl2+20 mM HEPES containing 1.26 mM Ca^2+) was added to each well. The 384-well compound plate was shook for 20 min to 40 min to mix well.
(§4) 2. Agonist: agonist ([…]) at a concentration 3 times the required concentration (the final concentration of 3000 nM is required for both hP2X3 and hP2X2/3 cells) was prepared with the test buffer. 45 μL of agonist was added to each well of the 384-well compound plate.
(§5) Dye incubation: The cell plate was taken out. The supernatant was removed. 30 uL of Dye (FLTPR® Calcium 4 Assay Kit, test buffer diluted) was added to each well. The cells were incubated for 1 hour.
(§6) FLTPR detection: 15 μL of compound was added to each well of the cell plate (FLTPR instrument sampling). After 15 minutes, 22.5 μL of agonist was added to each well. Fluorescence signals (excitation wavelength of 470 nm to 495 nm, emission wavelength of 515 nm to 575 nm) were detected.
(§7) Data processing: the difference between the peak value and the valley value of the signal was taken as the basic data. The highest concentration of positive drug was taken as 100% inhibition rate, and DMSO data was taken as 0% inhibition rate. The inhibition curves of compounds were fitted by log (inhibitor) vs. response—Variable slope on Graphpad prism 6 and the IC50 value was calculated.
(§8) Experimental homogeneity standard: each plate was subjected to ≥12 max values (DMSO action results) and ≥12 min values (highest concentration positive drug action results), and the Z value was calculated. If Z≥0.5, it is considered that the parallel wells are homogenous and the data is reliable. The calculation formula for Z value is as follows: Z=1−3*(SDmax+SDmin)/([…]).

The target of the next series is T2, hP2X3 (Homo sapiens, UniProt P56373).
T2 construct: host or cells: 1321N1
T2 sequence (P56373 1-397): T1 sequence (P56373 1-397)
As to the kind of experiment: FLIPR assay, antagonistic activity against hP2X3 receptor. The following applies: 1321N1/hP2X3 cells, FLIPR Calcium 4, agonist 3000 nM; read-out: P2X3 (IC50/nM). Format: cell-based. How it is done: as §1, §2, §3, §4, §5, §6, §7, §8

Series [1] has as its system mechanical pain hypersensitivity in the rat CFA inflammatory pain model. The series is described as follows: Analgesic effect in rat CFA inflammatory pain model (von Frey paw withdrawal threshold). The series is classed as in vivo, SD rats. How it is done: Test Example 2: Evaluation of Analgesic Effect of Rat CFA Inflammatory Pain Model
Experimental animals: 50 male SD rats with a weight of 230 g to 260 g were used. All the experimental animals were purchased from Beijing Weitonglihua Experimental Animal Technology Co., LTD. After purchase, food and water were supplied in the way of free feeding. The feeding temperature was 20° C. to 25° C. The humidity was 40% to 70%. The animals were kept in separate cages and labeled using the tail labeling method.
An emulsion was obtained by mixing full Freund's adjuvant with saline in equal amount. A certain amount of the emulsion was injected subcutaneously into the rats. The animal was placed in a specially designed multi-unit metal mesh cage for pain detection and allowed to acclimate for 15 minutes. After the animal's grooming and investigation activities were completed and acclimated to the detection environment, a series of calibrated von Frey filaments (0.4, 0.6, 1.0, 1.4, 2, 4, 6, 8, 10, 15) were continuously applied to the back paw until a withdrawal reflex reaction occurred. The tester conducted blind test on the experiment, and the experimental results were expressed as “mean±standard deviation”. The data of each group are analyzed by GraphPad Prism 5 t test, with statistical difference at P<0.05.

Series [2] is described as follows: Exposure at the effective dose in the rat pain model (basis for safety windows). The settings on record: in vivo. An excerpt:
Calculation Basis for Safety Windows:

Series [3] can be described thus: 14-day toxicity test with toxicokinetics in SD rats. The series is classed as in vivo. The following applies: for AUC / Cmax: SD, rat, blood, 100 mg/kg. How it is done: Test Example 3: Toxicity Test
There were 16 male and 16 female SD rats with SPF grade. Male SD rats weighed about 240 g and were 6 to 9 weeks old. Female SD rats weighed about 200 g and were 6 to 9 weeks old. All the experimental animals were purchased from Zhejiang Weitonglihua Experimental Animal Technology Co., LTD. After purchase, food and water were supplied in the way of free feeding. The feeding temperature was 20° C. to 26° C. The humidity was 40% to 70%. The number of air changes per hour was ≥15 times, and 100% fresh air was used. Automatic lighting and alternating light and dark every 12 hours were used. Male and female are kept in separate cages, with no more than 5 rats per cage.
Animals in each group were randomly divided according to gender and body weight, and were given the medicament once a day for 14 days according to the dose design in Table 7. Toxicokinetic blood sampling was performed in each dose group 30 min, 1 hr, 4 hr, 7 hr, 10 hr and 24 hr before and after the first and last administration, respectively, to investigate the toxicokinetic process in SD rats of each group.

[4] abbreviates: female, female SD rats, 100 mg/kg once a day for 14 days, last administration, read-out: AUC0t Last administration.
[5] abbreviates: female, female SD rats, 100 mg/kg once a day for 14 days, last administration, read-out: Cmax Last administration.
[6] abbreviates: female, female SD rats, 100 mg/kg once a day, first administration, read-out: AUC0t First administration.
The mark [7] stands for this setting: female, female SD rats, 100 mg/kg once a day, first administration, read-out: Cmax First administration.
Setting [8] is: male, male SD rats, 100 mg/kg once a day for 14 days, last administration, read-out: AUC0t Last administration.
The mark [9] stands for this setting: male, male SD rats, 100 mg/kg once a day for 14 days, last administration, read-out: Cmax Last administration.
The mark [10] stands for this setting: male, male SD rats, 100 mg/kg once a day, first administration, read-out: AUC0t First administration.
Where [11] appears, read: male, male SD rats, 100 mg/kg once a day, first administration, read-out: Cmax First administration.

The record followed here is patent US12630525B2, “Triazinylmethylcycloalkylcarboxylic acid derivative, and pharmaceutical composition and use thereof” (SHANGHAI HAIYAN PHARMACEUTICAL TECHNOLOGY CO., LTD., priority 2021, dated 2026).

For the molecule `O=C(O)[C@@H]1C[C@@H]1Cn1c(=O)[nH]/c(=N\c2ccc(Oc3ccccn3)cc2)n(Cc2ccc(Cl)cc2)c1=O` (racemic) [Compound H1, (±) cis-2-((3-(4-chlorobenzyl)-2,6-dioxo-4-(4-(pyridin-2-yloxy)phenylimino)-1,3,5-triazin-1-yl)methyl)cyclopropanecarboxylic acid], at hP2X2/3, the Selectivity multiple was found to be 27.
The molecule `O=C(O)[C@@H]1C[C@H]1Cn1c(=O)[nH]/c(=N\c2ccc(Oc3ccccn3)cc2)n(Cc2ccc(Cl)cc2)c1=O` (racemic) [Compound H2, (±) trans-2-((3-(4-chlorobenzyl)-2,6-dioxo-4-(4-(pyridin-2-yloxy)phenylimino)-1,3,5-triazin-1-yl)methyl)cyclopropanecarboxylic acid] returned a Selectivity multiple on hP2X2/3 of 151.
Consider `O=C(O)[C@@H]1C[C@H]1Cn1c(=O)[nH]/c(=N\c2ccc(Oc3ccc(F)cn3)cc2)n(Cc2ccc(Cl)cc2)c1=O` (racemic) [Compound H5, (±) trans-2-((3-(4-chlorobenzyl)-4-((4-((5-fluoropyridin-2-yl)oxy)phenyl)imino)-2,6-dioxo-1,3,5-triazin-1-yl)methyl)cyclopropan-1-carboxylic acid], for which, on hP2X2/3, the Selectivity multiple was found to be 251.
Take `O=C(O)[C@@H]1C[C@H]1Cn1c(=O)[nH]/c(=N\c2ccc(Oc3cccc(F)n3)cc2)n(Cc2ccc(Cl)cc2)c1=O` (racemic) [Compound H7, (±) trans-2-((3-(4-chlorobenzyl)-4-((4-((6-fluoropyridin-2-yl)oxy)phenyl)imino)-2,6-dioxo-1,3,5-triazin-1-yl)methyl)cyclopropan-1-carboxylic acid]: the IC50 on hP2X3 came out at 73 nM. Also, the Selectivity multiple on hP2X2/3 is given as 114.
As to `O=C(O)[C@@H]1C[C@H]1Cn1c(=O)[nH]/c(=N\c2ccc(Oc3ncccc3F)cc2)n(Cc2ccc(Cl)cc2)c1=O` (racemic) [Compound H8, (±) trans-2-((3-(4-chlorobenzyl)-4-((4-((3-fluoropyridin-2-yl)oxy)phenyl)imino)-2,6-dioxo-1,3,5-triazin-1-yl)methyl)cyclopropane-1-carboxylic acid], at hP2X3, the IC50 was determined as 148 nM. This molecule also gave a Selectivity multiple on hP2X2/3 of 238.
For `C[C@@H](Cn1c(=O)nc(Nc2ccc(Oc3ccccn3)cc2)n(Cc2ccc(Cl)cc2)c1=O)C(=O)O` [Compound D1, reference compound], the “effective dose in the rat pain model” value in series [1] (oral) worked out at 60 mg/kg. The AUC in series [2] (60 mg/kg) is about 1570 µg·h/mL; in series [3] (setting [4]), 2150 µg·h/mL; in series [3] (setting [6]) it was 2420 µg·h/mL; in series [3] (setting [8]), 2540 µg·h/mL; in series [3] (setting [10]), 2770 µg·h/mL. Further, the Cmax is about 141 µg/mL in series [2] (60 mg/kg); 156 µg/mL in series [3] (setting [5]); 185 µg/mL in series [3] (setting [7]); 188 µg/mL in series [3] (setting [9]); 200 µg/mL in series [3] (setting [11]).
As to `O=C(O)[C@H]1C[C@@H]1Cn1c(=O)[nH]/c(=N\c2ccc(Oc3ccc(F)cn3)cc2)n(Cc2ccc(Cl)cc2)c1=O` [Compound H5-P1, (1S,2S)-2-((3-(4-chlorobenzyl)-4-((4-((5-fluoropyridin-2-yl)oxy)phenyl)imino)-2,6-dioxo-1,3,5-triazin-1-yl)methyl)cyclopropan-1-carboxylic acid], in series [1] (60 mg/kg oral, 4 hours after administration), the “analgesic effect 4 hours after administration” value is on record as “good analgesic effect”. Moreover, the “mechanical pain hypersensitivity (paw withdrawal threshold)” value in series [1] (rat CFA model, oral, 30 and 60 mg/kg, FIG. 2 and FIG. 3) was “significantly inhibits”. For the same molecule, the “effective dose in the rat pain model” value in series [1] (oral) was 30 mg/kg. For the same molecule, the AUC in series [2] (30 mg/kg) is about 249 µg·h/mL; in series [3] (setting [4]) it was 1740 µg·h/mL; in series [3] (setting [6]), 1420 µg·h/mL; in series [3] (setting [8]), 2390 µg·h/mL; in series [3] (setting [10]), 1460 µg·h/mL. The Cmax was about 18.4 µg/mL in series [2] (30 mg/kg); 135 µg/mL in series [3] (setting [5]); 112 µg/mL in series [3] (setting [7]); 162 µg/mL in series [3] (setting [9]); 101 µg/mL in series [3] (setting [11]). Also, on hP2X3, the IC50 worked out at 23 nM. The molecule also came in with a Selectivity multiple on hP2X2/3 of 590. The “safety window (in words)” value in series [3] (from the data in Table 8) is listed as “high”.
For `O=C(O)[C@@H]1C[C@H]1Cn1c(=O)[nH]c(=Nc2ccc(Oc3ccc(F)cn3)cc2)n(Cc2ccc(Cl)cc2)c1=O` [Compound H5-P2, (1R,2R)-2-((3-(4-chlorobenzyl)-4-((4-((5-fluoropyridin-2-yl)oxy)phenyl)imino)-2,6-dioxo-1,3,5-triazin-1-yl)methyl)cyclopropan-1-carboxylic acid], the IC50 at hP2X3 is 106 nM. This molecule also yielded a Selectivity multiple at hP2X2/3 of 176.
